Consider six molecules from paper PMC11172257 (Emerging Microbes & Infections, 2024).

≈ marks a conversion by molar mass, not a printed value.

For the first experiment, the system named is K. pneumonia HSD. The experiment is described as follows: microbe, parasite or virus in culture. Set-up: species or system bacterial strains.
Settings: not given
In the case of `CO/N=C(\C(=O)N[C@@H]1C(=O)N2C(C(=O)[O-])=C(C[N+]3(C)CCCC3)CS[C@H]12)c1csc(N)n1` [Cefepime], the “MIC (μg/mL)^a / K. pneumonia HSD” value worked out at 128 µg/mL (≈ 266 µM).

Still in this experiment, the particulars now being: Klebsiella pneumoniae, read-out: MIC (μg/mL)^a / K. pneumonia HSD.
As to `C[C@@H](O)[C@H]1C(=O)N2C(C(=O)O)=C(S[C@@H]3CN[C@H](C(=O)Nc4cccc(C(=O)O)c4)C3)[C@H](C)[C@H]12` [Ertapenem], the MIC was found to be 32 µg/mL (≈ 67.3 µM).

With `NCC[C@H](O)C(=O)N[C@@H]1C[C@H](N)[C@@H](O[C@H]2O[C@H](CN)[C@@H](O)[C@H](O)[C@H]2O)[C@H](O)[C@H]1O[C@H]1O[C@H](CO)[C@@H](O)[C@H](N)[C@H]1O` [Amikacin], the MIC was greater than 128 µg/mL.

As to `C[C@@H](O)[C@H]1C(=O)N2C(C(=O)O)=C(S[C@@H]3CN[C@H](C(=O)N(C)C)C3)[C@H](C)[C@H]12` [Meropenem], the MIC turned out to be 4 µg/mL (≈ 10.4 µM).

On to `CC1(C)S[C@@H]2[C@H](NC(=O)[C@H](N)c3ccc(O)cc3)C(=O)N2[C@H]1C(=O)O` [Amoxicillin], for which the MIC was greater than 32 µg/mL.

Take `CC(C)(O/N=C(\C(=O)N[C@@H]1C(=O)N2C(C(=O)[O-])=C(C[n+]3ccccc3)CS[C@H]12)c1csc(N)n1)C(=O)O` [ceftazidime]: the MIC is greater than 128 µg/mL.
